The assay addresses T1, SIRT1 (Homo sapiens, UniProt Q96EB6).
T1 sequence (Q96EB6 1-747): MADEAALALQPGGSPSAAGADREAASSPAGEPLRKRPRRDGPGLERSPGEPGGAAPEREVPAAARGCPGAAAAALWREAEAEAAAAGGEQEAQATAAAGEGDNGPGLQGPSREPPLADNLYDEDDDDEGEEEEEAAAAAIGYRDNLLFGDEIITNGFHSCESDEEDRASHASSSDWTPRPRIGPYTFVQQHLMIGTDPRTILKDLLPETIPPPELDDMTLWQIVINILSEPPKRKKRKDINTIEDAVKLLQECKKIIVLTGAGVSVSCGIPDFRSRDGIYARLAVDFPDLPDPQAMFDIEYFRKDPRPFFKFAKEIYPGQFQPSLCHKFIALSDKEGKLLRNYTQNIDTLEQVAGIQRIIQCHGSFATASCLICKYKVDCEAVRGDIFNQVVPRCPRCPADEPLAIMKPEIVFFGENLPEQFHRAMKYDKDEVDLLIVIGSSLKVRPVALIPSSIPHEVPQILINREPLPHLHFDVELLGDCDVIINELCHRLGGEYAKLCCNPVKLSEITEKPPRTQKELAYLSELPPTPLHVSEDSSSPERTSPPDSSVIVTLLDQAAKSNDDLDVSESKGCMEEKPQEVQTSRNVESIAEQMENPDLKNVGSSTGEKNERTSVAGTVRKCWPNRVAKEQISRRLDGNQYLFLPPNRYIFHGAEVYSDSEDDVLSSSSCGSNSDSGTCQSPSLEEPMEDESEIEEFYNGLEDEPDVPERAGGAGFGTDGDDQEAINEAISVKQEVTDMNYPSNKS
The assay can be described thus: Mass spectrometry based assay to identify modulators of SIRT1 activity (deacetylation of p53-based acetylated peptide substrate). It counts as biochemical. As to conditions: SIRT1 activation; for Emax: 25 min, read-out: % FOLD ACT. (percent maximum fold activation). From the text: A mass spectrometry based assay was used to identify modulators of SIRT1 activity. The mass spectrometry based assay utilizes a peptide having 20 amino acid residues as follows: Ac-EE-K(biotin)-GQSTSSHSK(Ac)NleSTEG-K(5TMR)-EE-NH2 (SEQ ID NO: 1) wherein K(Ac) is an acetylated lysine residue and Nle is a norleucine. The peptide is labeled with the fluorophore 5TMR (excitation 540 nm/emission 580 nm) at the C-terminus. The sequence of the peptide substrate is based on p53 with several modifications. In addition, the methionine residue naturally present in the sequence was replaced with the norleucine because the methionine may be susceptible to oxidation during synthesis and purification.
The mass spectrometry assay is conducted as follows: […] peptide substrate and 120 μM βNAD^+ is incubated with 10 nM SIRT1 for 25 minutes at 25° C. in a reaction buffer (50 mM Tris-acetate pH 8, 137 mM NaCl, 2.7 mM KCl, 1 mM MgCl2, 5 mM DTT, 0.05% BSA). Test compounds may be added to the reaction as described above. The SirT1 gene is cloned into a T7-promoter containing vector and transformed into BL21(DE3). After the 25 minute incubation with SIRT1, 10 μL of 10% formic acid is added to stop the reaction. Reactions are sealed and frozen for later mass spec analysis. Determination of the mass of the substrate peptide allows for precise determination of the degree of acetylation (i.e. starting material) as compared to deacetylated peptide (product).
A control for inhibition of sirtuin activity is conducted by adding 1 μL of 500 mM nicotinamide as a negative control at the start of the reaction (e.g., permits determination of maximum sirtuin inhibition). A control for activation of sirtuin activity is conducted using 10 nM of sirtuin protein, with 1 μL of DMSO in place of compound, to determine the amount of deacetylation of the substrate at a given timepoint within the linear range of the assay. This timepoint is the same as that used for test compounds and, within the linear range, the endpoint represents a change in velocity.
For the above assay, SIRT1 protein was expressed and purified as follows. The SirT1 gene was cloned into a T7-promoter containing vector and transformed into BL21(DE3). The protein was expressed by induction with 1 mM IPTG as an N-terminal His-tag fusion protein at 18° C. overnight and harvested at 30,000×g. Cells were lysed with lysozyme in lysis buffer (50 mM Tris-HCl, 2 mM Tris[2-carboxyethyl]phosphine (TCEP), 10 μM ZnCl2, 200 mM NaCl) and further treated with sonication for 10 min for complete lysis. The protein was purified over a Ni-NTA column (Amersham) and fractions containing pure protein were pooled, concentrated and run over a sizing column (Sephadex S200 26/60 global). The peak containing soluble protein was collected and run on an Ion-exchange column (MonoQ). Gradient elution (200 mM-500 mM NaCl) yielded pure protein. This protein was concentrated and dialyzed against dialysis buffer (20 mM Tris-HCl, 2 mM TCEP) overnight. The protein was aliquoted and frozen at −80° C. until further use.

We go through 20 molecules from US9556201B2, “Bicyclic pyridines and analogs as sirtuin modulators” (GLAXOSMITHKLINE LLC, priority 2009, dated 2017).

Each structure is given as a SMILES string.

For the molecule `CC1(C)CC(NC(=O)N2CCOc3ccc(-c4cccc(C(F)(F)F)c4)nc32)CC(C)(C)N1` [Compound 634], the Emax was at most 200% and the EC1.5 result is reported as “C (EC1.5>25 μM)”.

As for `Cc1ccc(-c2ccc3c(n2)N(C(=O)Nc2ccnc(C)c2)CCCO3)cn1` [Compound 635], the Emax is at most 200% and the EC1.5 result was “C (EC1.5>25 μM)”.

Regarding `Cc1cncc(NC(=O)N2CCCOc3ccc(-c4ccc(C)nc4)nc32)c1` [Compound 636], the Emax is at most 200% and the EC1.5 result is on record as “C (EC1.5>25 μM)”.

`Cc1ccc(-c2ccc3c(n2)N(C(=O)Nc2cc(C)nc(C)c2)CCCO3)cn1` [Compound 637]: the Emax is above 200% and the EC1.5 entry is “B (EC1.5 1-25 μM)”.

Turning to `Cc1cc(OCC(O)CO)nc(NC(=O)N2CCCc3ccc(-c4cccc(C(F)(F)F)c4)nc32)n1` (stereo not shown) [Compound 640], the Emax was above 200% and the EC1.5 result is given as “B (EC1.5 1-25 μM)”.

`O=C(Oc1cccc(OCC(O)CO)c1)N1CCCc2ccc(-c3cccc(C(F)(F)F)c3)nc21` (stereo not shown) [Compound 641, 3-(2,3-dihydroxypropoxy)phenyl 7-(3-(trifluoromethyl)phenyl)-3,4-dihydro-1,8-naphthyridine-1(2H)-carboxylate]: the Emax is at most 200% and the EC1.5 entry is on record as “B (EC1.5 1-25 μM)”.

Consider `O=C(c1cccc(OCC(O)CO)c1)N1CCCc2ccc(-c3cccc(C(F)(F)F)c3)nc21` (stereo not shown) [Compound 642, (3-(2,3-dihydroxypropoxy)phenyl)(7-(3-(trifluoromethyl)phenyl)-3,4-dihydro-1,8-naphthyridin-1(2H)-yl)methanone], for which the Emax was at most 200% and the EC1.5 entry was “C (EC1.5>25 μM)”.

With `O=C(Nc1ncccn1)N1CCCOc2ccc(-c3cccc(C(F)(F)F)c3)nc21` [Compound 643], the Emax is above 200% and the EC1.5 entry is listed as “B (EC1.5 1-25 μM)”.

With `O=C(Nc1ccncc1)N1CCCc2ccc(-c3cccc(F)c3)nc21` [Compound 648], the Emax was above 200% and the EC1.5 result was “A (EC1.5<1.0 μM)”.

In the case of `O=C(Nc1ccccn1)N1CCCc2ccc(-c3cccc(F)c3)nc21` [Compound 649], the Emax is above 200% and the EC1.5 result is “A (EC1.5<1.0 μM)”.

For the molecule `O=C(Nc1cccnc1)N1CCCc2ccc(-c3cccc(F)c3)nc21` [Compound 650], the Emax was above 200% and the EC1.5 entry was “B (EC1.5 1-25 μM)”.

Consider `O=C(Nc1ccncc1)N1CCCc2ccc(-c3cccc(Cl)c3)nc21` [Compound 651], for which the Emax is above 200% and the EC1.5 result is “A (EC1.5<1.0 μM)”.

In the case of `O=C(Nc1ccccn1)N1CCCc2ccc(-c3cccc(Cl)c3)nc21` [Compound 652], the Emax was above 200% and the EC1.5 result is “A (EC1.5<1.0 μM)”.

In the case of `Cc1cncc(NC(=O)N2CCCOc3ccc(-c4ccnc(C)c4)nc32)c1` [Compound 655], the Emax was at most 200% and the EC1.5 entry was “B (EC1.5 1-25 μM)”.

Take `Cc1cc(NC(=O)N2CCCOc3ccc(-c4ccnc(C)c4)nc32)ccn1` [Compound 656]: the Emax was above 200% and the EC1.5 entry is listed as “B (EC1.5 1-25 μM)”.

Take `Cc1cc(-c2ccc3c(n2)N(C(=O)Nc2cc(C)nc(C)c2)CCCO3)ccn1` [Compound 657]: the Emax was above 200% and the EC1.5 result is on record as “B (EC1.5 1-25 μM)”.

With `O=C(Nc1ncccn1)N1CCCc2ccc(-c3cccc(F)c3)nc21` [Compound 665], the Emax was above 200% and the EC1.5 entry was “B (EC1.5 1-25 μM)”.

Turning to `O=C(Nc1ncccn1)N1CCCc2ccc(-c3cccc(C(F)(F)F)c3)nc21` [Compound 666], the Emax is above 200% and the EC1.5 result is “A (EC1.5<1.0 μM)”.

On to `O=C(Nc1ncccn1)N1CCCc2ccc(-c3cccc(Cl)c3)nc21` [Compound 667], for which the Emax was above 200% and the EC1.5 result is reported as “B (EC1.5 1-25 μM)”.

Turning to `O=C(Nc1ccncc1)N1CCOc2ccc(-c3ccccc3)nc21` [Compound 673], the Emax is above 200% and the EC1.5 entry was “A (EC1.5<1.0 μM)”.
